Data published in article PMC9841524, “Structure-Based Rational Design of Small α-Helical Peptides with Broad-Spectrum Activity against Multidrug-Resistant Pathogens” (Journal of Medicinal Chemistry, 2022).
Where no end group is shown, it is not given here.

Columns and labels:
S. aureus (ATCC 29213) = assay: MIC, standard microtiter dilution (CLSI); assay type: cell-based; conditions: broth microdilution (CLSI), CAMHB, 37 °C, 24 h
Procedure, shortened: (§1)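 In this CLSI-recommended assay, peptides were serially diluted twofold and combined with bacteria at 10^6 CFU/mL in cation-adjusted Mueller Hinton Broth.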

[1] = system: S. pneumoniae (ATCC 49619); conditions: Gram-positive; CLSI microdilution, CAMHB + 2.5% lysed horse blood, 37 °C, 24 h; highest MIC of three independent experiments in triplicate
Procedure, shortened: as §1

[2] = system: nonresistant and MDR S. pneumoniae; conditions: Table 2
Procedure, shortened: as §1

[3] = system: K. pneumoniae (ATCCBAA-1705); assay: MIC, standard microtiter dilution (CLSI); assay type: cell-based, Klebsiella pneumoniae; conditions: broth microdilution (CLSI), CAMHB, 37 °C, 24 h
Procedure, shortened: as §1

[4] = system: human red blood cells (hRBCs); assay: Hemolytic assay; assay type: cell-based; conditions: for decrease in the hemolytic activity on replacing Arg with Lys: 7b vs 7a, 8b vs 8a, HC50, hRBC; for HC50 (concentration at which 50% hemolysis was observed): 2 h, 37 °C
Procedure, shortened: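 Peptides in 2-fold serial dilutions mixed 1:1 with 4% hRBC suspension in PBS and held 2 h at 37 °C unshaken. Hemoglobin release in supernatant read at 567 nm; % hemolysis scaled between PBS (0%) and 1% Triton X-100 (100%).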

E. faecalis (ATCC 51575) = assay: microbe, parasite or virus in culture; conditions: Gram-positive, vancomycin-resistant; CLSI microdilution, CAMHB, 37 °C, 24 h; highest MIC of three independent experiments in triplicate
Description: (§2) Description of the characteristics and growth conditions of various bacterial strains used in the study are provided in the Supporting Information (Table S3). Antibacterial susceptibility testing was carried out using a standard microtiter dilution method recommended by the clinical and laboratory standard institute (CLSI) and measured as a minimum inhibitory concentration (MIC), the lowest peptide concentration that inhibited bacterial growth. Briefly, the overnight grown cultures in the recommended broth for each bacterial strain were diluted in cation-adjusted Mueller Hinton Broth (CAMHB) to give an inoculum of 10^6 colony-forming units (CFU)/mL. A 2-fold serially diluted test peptide solution (100 μL) was added to the microtiter plates. After adding bacterial suspension (100 μL), the plates were incubated at 37 °C for 24 h, and the MICs were determined. The same protocol was used to determine the MICs in the presence of salts and serum except using the media supplemented with various cationic salts (150 mM NaCl, 4.5 mM KCl, 6 mM NH4Cl, 1 mM MgCl2, and 2 mM CaCl2) or 25% FBS. The data was acquired from three independent assays performed in triplicate.
(§3) The bacterial strains employed in this study were obtained from the American Type Culture Collection (ATCC). Each strain was propagated as recommended by the ATCC, and each strain was stored as a frozen glycerol stock at -80°C. A bacterial colony was grown on the appropriate agar as indicated in Table S1 and was used to inoculate the appropriate broth. The culture was incubated at the appropriate conditions, as mentioned in Table S1. Following the incubation, the culture was diluted to an optical density 625 nm (OD625) of 0.1 in cation adjusted Mueller Hinton Broth (CAMHB), which is equivalent to 1 × 10^8 CFU/mL. The culture was further diluted to 1 × 10^6 CFU/mL, which was used to conduct the MIC determination assay. For the S. pneumoniae strains, CAMHB + 2.5% lysed horse blood was required for the assay. The strains with their […]
(§4) Table S3. Description of the characteristics and growth conditions of various bacterial strains

E. faecium (ATCC 27270) = assay: microbe, parasite or virus in culture
Description: as §2, §3, §4

E. faecium (ATCC 700221) = assay: microbe, parasite or virus in culture; conditions: Gram-positive, vancomycin-resistant; CLSI microdilution, CAMHB, 37 °C, 24 h; highest MIC of three independent experiments in triplicate
Description: as §2, §3, §4

MRSA (ATCC BAA-1556) [5] = assay: Bactericidal kinetic assay; assay type: cell-based, methicillin-resistant S. aureus; conditions: for killing of MRSA cells at 4 × MIC: after 4 h of incubation
Description: The time course of bacterial killing was studied by the exposure of overnight grown cultures of MRSA (ATCC BAA-1556) and E. coli (ATCC BAA-2452) to 8a and 8b at the MIC and 4× the MIC in Muller Hinton media. Bacterial cells (2 × 10^6 CFU/mL) were treated with peptides and standard antibiotics and incubated at 37 °C. Aliquots were withdrawn at a 30 min time interval for 4 h and plated on the agar plate to determine the number of viable bacterial colonies. Data were obtained from two independent experiments performed in triplicate.

MRSA (ATCC BAA-1556) [6] = assay: Flow cytometric analysis of PI-stained cells; assay type: cell-based, methicillin-resistant S. aureus; conditions: flow cytometry; for PI fluorescence of MRSA cells at MIC: 1 h treatment, 10^7 CFU/mL
Description: The flow cytometric analysis was performed by using MRSA (ATCC BAA-1556) and E. coli (ATCC BAA-2452) cultures grown to the mid log phase in Mueller Hinton broth (HIMEDIA). Before treatment, bacterial cells were washed thrice with buffer (10 mM Tris, pH 7.4) and resuspended in the same buffer to obtain 10^7 CFU/mL bacterial suspensions. Test peptides (8a and 8b) and the standard antibiotics (daptomycin and polymyxin B) at MIC and 4 × MIC were incubated with bacterial suspension for 1 h. Following the treatment with test peptides, the cells were pelleted by centrifugation at 3000g for 15 min in a microcentrifuge. The supernatant was decanted, and the cells were washed with PBS several times and then incubated with PI ([…]) in the dark for 15 min at 37 °C. FACS analysis of the stained bacterial cells was performed using a FACscan flow cytometer (BD Accuri C6, BD Biosciences, California, USA), and data were analyzed by using Cell Quest software.

[7] = 10^6 CFU/mL, highest MIC of three independent experiments in triplicate
[8] = value in parentheses (μM), hRBC 4% in PBS, 567 nm
[9] = hRBC suspension 4% in PBS, hemoglobin release at 567 nm, 1% Triton X-100 = 100%

| Molecule | MIC, S. aureus (ATCC 29213) (S. aureus (ATCC 29213); [7]) [µg/mL] | MIC, S. aureus (ATCC 29213) (S. aureus (ATCC 29213); value in parentheses (μM)) [µM] | MIC, S. pneumoniae (ATCC 49619) [1] [µg/mL] | MIC, nonresistant and MDR S. pneumoniae [2] [µg/mL] | MIC, K. pneumoniae (ATCCBAA-1705) [3, 7] [µg/mL] | MIC, K. pneumoniae (ATCCBAA-1705) ([3]; value in parentheses (μM)) [µM] | decrease in the hemolytic activity on replacing Arg with Lys [4] | HC50 ([4]; abstract, hRBC) [µg/mL] | HC50 (concentration at which 50% hemolysis was observed) [4, 8] [µM] | MIC, E. faecalis (ATCC 51575) (E. faecalis (ATCC 51575)) [µg/mL] | MIC, E. faecium (ATCC 27270) (E. faecium (ATCC 27270); ATCC 27270, 24 h) [µg/mL] | MIC, E. faecium (ATCC 700221) (E. faecium (ATCC 700221)) [µg/mL] | killing of MRSA cells at 4 × MIC (MRSA (ATCC BAA-1556) [5]) | PI fluorescence of MRSA cells at MIC (MRSA (ATCC BAA-1556) [6]) [%] | HC50 (concentration at which 50% hemolysis was observed) [4, 9] [µg/mL] | MIC, E. faecium (ATCC 27270) (E. faecium (ATCC 27270); Gram-positive, CLSI microdilution, CAMHB, 37 °C, 24 h, highest MIC of three independent experiments in triplicate) [µg/mL] | time to complete killing of MRSA at 4 × MIC (MRSA (ATCC BAA-1556) [5]; 4 × MIC) [h] | PI-stained population of MRSA cells (MRSA (ATCC BAA-1556) [6]; MIC and 4 × MIC, 1 h) |
| --- | --- | --- | --- | --- | --- | --- | --- | --- | --- | --- | --- | --- | --- | --- | --- | --- | --- | --- |
| KWLKKWLKWWKK-NH2 [8b] | 3.1 | 1.76 | 12.5 | 12.5 | 6.2 | 3.53 | approximately 5 fold | 280 | 159.34 | 6.2 | 3.1 | 3.1 | completely eliminated | 42.1 |  |  |  |  |
| RWIRRWIRWWRR-NH2 [7a] | 6.2 | 3.22 |  |  | 12.5 | 6.49 |  |  | 46.74 | 12.5 | 6.2 | 6.2 |  |  | 90 |  |  |  |
| RWLRRWLRWWRR-NH2 [8a] | 6.2 | 3.22 |  |  | 12.5 | 6.49 |  |  | 23.37 | 6.2 | 6.2 | 3.1 | completely eliminated | 34.2 | 45 |  |  |  |
| CCCCCCCCCC(=O)N[C@@H](Cc1c[nH]c2ccccc12)C(=O)N[C@H](CC(N)=O)C(=O)N[C@@H](CC(=O)O)C(=O)N[C@@H]1C(=O)NCC(=O)N[C@@H](CCCN)C(=O)N[C@@H](CC(=O)O)C(=O)N[C@H](C)C(=O)N[C@@H](CC(=O)O)C(=O)NCC(=O)N[C@H](CO)C(=O)N[C@@H]([C@H](C)CC(=O)O)C(=O)N[C@@H](CC(=O)c2ccccc2N)C(=O)O[C@@H]1C [daptomycin, reference compound] | 0.7 | 0.43 | 12.5 |  |  |  |  |  |  | 12.5 |  | 6.2 |  |  |  | 1.5 | 3 | did not significantly increase |
| KWIKKWIKWWKK-NH2 [7b] | 6.2 | 3.53 |  |  | 25 | 14.23 | approximately 5 fold |  | 261.77 | 6.2 | 6.2 | 6.2 |  |  | 460 |  |  |  |
